Measured values as given in US12077503B2, “Substituted cyclic amides and their use as herbicides” (FMC CORPORATION, priority 2015, dated 2024).

How the values were obtained:
Assay type in all cases: in vivo
[1] = tested on: pigweed (Amaranthus retroflexus); experiment: Test A preemergence; conditions: Amaranthus retroflexus, pre-emergence, 240 h, preemergence, 0 to 100 scale where 0 is no effect and 100 is complete control, read-out: Pigweed plant response rating; for pest or weed control at 125 g/ha: 125 g ai/ha, visual injury rating, approximately 10 d; for pest or weed control at 500 g/ha: 500 g ai/ha
[2] = tested on: ragweed (common ragweed, Ambrosia elatior); experiment: Test A preemergence; conditions: Ambrosia artemisiifolia, pre-emergence, 240 h, preemergence, 0 to 100 scale where 0 is no effect and 100 is complete control, read-out: Ragweed plant response rating; for pest or weed control at 125 g/ha: 125 g ai/ha, visual injury rating, approximately 10 d; for pest or weed control at 500 g/ha: 500 g ai/ha
Method in brief: (§1)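 Visual injury, scored on a 0–100 scale relative to untreated controls, was recorded about 10 d after application. Treatments were a preemergence soil spray over planted seeds or a postemergence spray on plants at the one- to two-leaf stage, 2 to 10 cm tall, all in loam soil–sand blend in the greenhouse.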

[3] = tested on: Kochia (Kochia scoparia); experiment: Test A preemergence; conditions: Bassia scoparia, pre-emergence, 240 h, preemergence, 0 to 100 scale where 0 is no effect and 100 is complete control, read-out: Kochia plant response rating; for pest or weed control at 125 g/ha: 125 g ai/ha, visual injury rating, approximately 10 d; for pest or weed control at 500 g/ha: 500 g ai/ha
Method in brief: as §1

[4] = tested on: barnyardgrass (Echinochloa crus-galli); experiment: Test A preemergence; conditions: Echinochloa crus-galli, pre-emergence, 240 h, preemergence, 0 to 100 scale where 0 is no effect and 100 is complete control, read-out: Barnyardgrass plant response rating; for pest or weed control at 125 g/ha: 125 g ai/ha, visual injury rating, approximately 10 d; for pest or weed control at 500 g/ha: 500 g ai/ha
Method in brief: as §1

[5] = tested on: ryegrass, Italian (Italian ryegrass, Lolium multiflorum); experiment: Test A preemergence; conditions: Lolium multiflorum, pre-emergence, 240 h, preemergence, 0 to 100 scale where 0 is no effect and 100 is complete control, read-out: Ryegrass, Italian plant response rating; for pest or weed control at 125 g/ha: 125 g ai/ha, visual injury rating, approximately 10 d; for pest or weed control at 500 g/ha: 500 g ai/ha
Method in brief: as §1

[6] = tested on: giant foxtail (Setaria faberii); experiment: Test A preemergence; conditions: Setaria faberi, pre-emergence, 240 h, preemergence, 0 to 100 scale where 0 is no effect and 100 is complete control, read-out: Foxtail, Giant plant response rating; for pest or weed control at 125 g/ha: 125 g ai/ha, visual injury rating, approximately 10 d; for pest or weed control at 500 g/ha: 500 g ai/ha
Method in brief: as §1

[7] = tested on: pigweed (Amaranthus retroflexus); experiment: Test A postemergence; conditions: Amaranthus retroflexus, post-emergence, 240 h, Postemergence; for pest or weed control at 125 g/ha: 125 g ai/ha, visual rating about 10 d after treatment, read-out: Pigweed plant response rating (0 to 100 scale); for pest or weed control at 500 g/ha: 500 g ai/ha, visual injury, 0 to 100 scale (0 no effect, 100 complete control), approx. 10 d, read-out: Plant response rating, Pigweed
Method in brief: as §1

[8] = tested on: ragweed (common ragweed, Ambrosia elatior); experiment: Test A postemergence; conditions: Ambrosia artemisiifolia, post-emergence, 240 h, Postemergence; for pest or weed control at 125 g/ha: 125 g ai/ha, visual rating about 10 d after treatment, read-out: Ragweed plant response rating (0 to 100 scale); for pest or weed control at 500 g/ha: 500 g ai/ha, visual injury, 0 to 100 scale (0 no effect, 100 complete control), approx. 10 d, read-out: Plant response rating, Ragweed
Method in brief: as §1

[9] = tested on: blackgrass (Alopecurus myosuroides); experiment: Test A postemergence; conditions: Alopecurus myosuroides, post-emergence, 240 h, Postemergence; for pest or weed control at 125 g/ha: 125 g ai/ha, visual rating about 10 d after treatment, read-out: Blackgrass plant response rating (0 to 100 scale); for pest or weed control at 500 g/ha: 500 g ai/ha, visual injury, 0 to 100 scale (0 no effect, 100 complete control), approx. 10 d, read-out: Plant response rating, Blackgrass
Method in brief: as §1

[10] = tested on: Kochia (Kochia scoparia); experiment: Test A postemergence; conditions: Bassia scoparia, post-emergence, 240 h, Postemergence; for pest or weed control at 125 g/ha: 125 g ai/ha, visual rating about 10 d after treatment, read-out: Kochia plant response rating (0 to 100 scale); for pest or weed control at 500 g/ha: 500 g ai/ha, visual injury, 0 to 100 scale (0 no effect, 100 complete control), approx. 10 d, read-out: Plant response rating, Kochia
Method in brief: as §1

[11] = tested on: barnyardgrass (Echinochloa crus-galli); experiment: Test A postemergence; conditions: Echinochloa crus-galli, post-emergence, 240 h, Postemergence; for pest or weed control at 125 g/ha: 125 g ai/ha, visual rating about 10 d after treatment, read-out: Barnyardgrass plant response rating (0 to 100 scale, 0 no effect, 100 complete control); for pest or weed control at 500 g/ha: 500 g ai/ha, visual injury, 0 to 100 scale (0 no effect, 100 complete control), approx. 10 d, read-out: Plant response rating, Barnyardgrass
Method in brief: as §1

[12] = tested on: corn (Zea mays); experiment: Test A postemergence; conditions: Zea mays, post-emergence, 240 h, Postemergence; for plant injury at 125 g/ha: 125 g ai/ha, visual rating about 10 d after treatment, read-out: Corn plant response rating (0 to 100 scale); for Corn plant response rating (crop injury, 0 = no effect, 100 = complete kill) at 500 g/ha: 500 g ai/ha, visual injury, 0 to 100 scale (0 no effect, 100 complete control), approx. 10 d
Method in brief: as §1

[13] = tested on: ryegrass, Italian (Italian ryegrass, Lolium multiflorum); experiment: Test A postemergence; conditions: Lolium multiflorum, post-emergence, 240 h, Postemergence; for pest or weed control at 125 g/ha: 125 g ai/ha, visual rating about 10 d after treatment, read-out: Ryegrass, Italian plant response rating (0 to 100 scale); for pest or weed control at 500 g/ha: 500 g ai/ha, visual injury, 0 to 100 scale (0 no effect, 100 complete control), approx. 10 d, read-out: Plant response rating, Ryegrass, Italian
Method in brief: as §1

[14] = tested on: Galium (catchweed bedstraw, Galium aparine); experiment: Test A postemergence; conditions: Galium, post-emergence, 240 h, Postemergence; for pest or weed control at 125 g/ha: 125 g ai/ha, visual rating about 10 d after treatment, read-out: Galium plant response rating (0 to 100 scale); for pest or weed control at 500 g/ha: 500 g ai/ha, visual injury, 0 to 100 scale (0 no effect, 100 complete control), approx. 10 d, read-out: Plant response rating, Galium
Method in brief: as §1

[15] = tested on: giant foxtail (Setaria faberii); experiment: Test A postemergence; conditions: Setaria faberi, post-emergence, 240 h, Postemergence; for pest or weed control at 125 g/ha: 125 g ai/ha, visual rating about 10 d after treatment, read-out: Foxtail, Giant plant response rating (0 to 100 scale); for pest or weed control at 500 g/ha: 500 g ai/ha, visual injury, 0 to 100 scale (0 no effect, 100 complete control), approx. 10 d, read-out: Plant response rating, Foxtail, Giant
Method in brief: as §1

[16] = tested on: wheat (Triticum aestivum); experiment: Test A postemergence; conditions: Triticum aestivum, post-emergence, 240 h, Postemergence; for plant injury at 125 g/ha: 125 g ai/ha, visual rating about 10 d after treatment, read-out: Wheat plant response rating (0 to 100 scale); for plant injury at 500 g/ha: 500 g ai/ha, visual injury, 0 to 100 scale (0 no effect, 100 complete control), approx. 10 d, read-out: Plant response rating, Wheat
Method in brief: as §1

| SMILES | pest or weed control at 125 g/ha [1] | pest or weed control at 500 g/ha [1] | pest or weed control at 125 g/ha [2] | pest or weed control at 500 g/ha [2] | pest or weed control at 125 g/ha [3] | pest or weed control at 500 g/ha [3] | pest or weed control at 125 g/ha [4] | pest or weed control at 500 g/ha [4] | pest or weed control at 125 g/ha [5] | pest or weed control at 500 g/ha [5] | pest or weed control at 125 g/ha [6] | pest or weed control at 500 g/ha [6] | pest or weed control at 125 g/ha [7] | pest or weed control at 500 g/ha [7] | pest or weed control at 125 g/ha [8] | pest or weed control at 500 g/ha [8] | pest or weed control at 125 g/ha [9] | pest or weed control at 500 g/ha [9] | pest or weed control at 125 g/ha [10] | pest or weed control at 500 g/ha [10] | other results |
| --- | --- | --- | --- | --- | --- | --- | --- | --- | --- | --- | --- | --- | --- | --- | --- | --- | --- | --- | --- | --- | --- |
| Cc1nc([C@H]2CN(C)C(=O)[C@@H]2C(=O)Nc2ccccc2F)cs1 [Compound 1280] | 0% | 30% | 0% | 0% | 0% | 0% | 0% | 50% | 0% | 0% | 0% | 80% | 0% | 0% | 0% | 0% | 0% | 0% | 0% | 0% | pest or weed control at 125 g/ha [11]: 0%; pest or weed control at 500 g/ha [11]: 40%; plant injury at 125 g/ha [12]: 0%; Corn plant response rating (crop injury, 0 = no effect, 100 = complete kill) at 500 g/ha [12]: 0%; pest or weed control at 125 g/ha [13]: 0%; pest or weed control at 500 g/ha [13]: 0%; pest or weed control at 125 g/ha [14]: 0%; pest or weed control at 500 g/ha [14]: 0%; pest or weed control at 125 g/ha [15]: 0%; pest or weed control at 500 g/ha [15]: 30%; plant injury at 125 g/ha [16]: 0%; plant injury at 500 g/ha [16]: 0% |
| COc1cc([C@H]2CN(C)C(=O)[C@@H]2C(=O)Nc2ccccc2S(C)(=O)=O)ccc1F [Compound 1302] | 0% | 30% | 0% | 50% | 0% | 60% | 60% | 90% | 0% | 0% | 90% | 90% | 0% | 0% | 0% | 0% | 0% | 20% | 0% | 20% | pest or weed control at 125 g/ha [11]: 60%; pest or weed control at 500 g/ha [11]: 90%; plant injury at 125 g/ha [12]: 0%; Corn plant response rating (crop injury, 0 = no effect, 100 = complete kill) at 500 g/ha [12]: 0%; pest or weed control at 125 g/ha [13]: 0%; pest or weed control at 500 g/ha [13]: 20%; pest or weed control at 125 g/ha [14]: 0%; pest or weed control at 500 g/ha [14]: 30%; pest or weed control at 125 g/ha [15]: 30%; pest or weed control at 500 g/ha [15]: 80%; plant injury at 125 g/ha [16]: 0%; plant injury at 500 g/ha [16]: 0% |
| O=C1NC[C@H](c2nccc(C(F)(F)F)n2)[C@H]1C(=O)Nc1ccccc1F [Compound 1304] | 0% | 0% | 0% | 0% | 0% | 0% | 0% | 0% | 0% | 0% | 0% | 0% | 0% | 0% | 0% | 0% | 0% | 0% | 0% | 0% | pest or weed control at 125 g/ha [11]: 0%; pest or weed control at 500 g/ha [11]: 0%; plant injury at 125 g/ha [12]: 0%; Corn plant response rating (crop injury, 0 = no effect, 100 = complete kill) at 500 g/ha [12]: 0%; pest or weed control at 125 g/ha [13]: 0%; pest or weed control at 500 g/ha [13]: 0%; pest or weed control at 125 g/ha [14]: 0%; pest or weed control at 500 g/ha [14]: 0%; pest or weed control at 125 g/ha [15]: 0%; pest or weed control at 500 g/ha [15]: 0%; plant injury at 125 g/ha [16]: 0%; plant injury at 500 g/ha [16]: 0% |
